Laboratory results as given in patent US10004732B2 (Novartis AG, priority 2014, dated 2018).
Read-outs that look alike come from different tables or passages of the source.

Assays:
PI 3-kinase alpha [1] = molecular target: T1, PI 3-kinase alpha (Homo sapiens, UniProt P42336); assay: Cellular assay H1, p-Akt (S473) in Rat-1 cells, Surefire format; format: cell-based; settings: non-asterisked data: version H1 (Surefire format), Rat-1 cells; read-out: Assay H PI3Kα IC50
Target sequence in this assay (P42336 whole entry): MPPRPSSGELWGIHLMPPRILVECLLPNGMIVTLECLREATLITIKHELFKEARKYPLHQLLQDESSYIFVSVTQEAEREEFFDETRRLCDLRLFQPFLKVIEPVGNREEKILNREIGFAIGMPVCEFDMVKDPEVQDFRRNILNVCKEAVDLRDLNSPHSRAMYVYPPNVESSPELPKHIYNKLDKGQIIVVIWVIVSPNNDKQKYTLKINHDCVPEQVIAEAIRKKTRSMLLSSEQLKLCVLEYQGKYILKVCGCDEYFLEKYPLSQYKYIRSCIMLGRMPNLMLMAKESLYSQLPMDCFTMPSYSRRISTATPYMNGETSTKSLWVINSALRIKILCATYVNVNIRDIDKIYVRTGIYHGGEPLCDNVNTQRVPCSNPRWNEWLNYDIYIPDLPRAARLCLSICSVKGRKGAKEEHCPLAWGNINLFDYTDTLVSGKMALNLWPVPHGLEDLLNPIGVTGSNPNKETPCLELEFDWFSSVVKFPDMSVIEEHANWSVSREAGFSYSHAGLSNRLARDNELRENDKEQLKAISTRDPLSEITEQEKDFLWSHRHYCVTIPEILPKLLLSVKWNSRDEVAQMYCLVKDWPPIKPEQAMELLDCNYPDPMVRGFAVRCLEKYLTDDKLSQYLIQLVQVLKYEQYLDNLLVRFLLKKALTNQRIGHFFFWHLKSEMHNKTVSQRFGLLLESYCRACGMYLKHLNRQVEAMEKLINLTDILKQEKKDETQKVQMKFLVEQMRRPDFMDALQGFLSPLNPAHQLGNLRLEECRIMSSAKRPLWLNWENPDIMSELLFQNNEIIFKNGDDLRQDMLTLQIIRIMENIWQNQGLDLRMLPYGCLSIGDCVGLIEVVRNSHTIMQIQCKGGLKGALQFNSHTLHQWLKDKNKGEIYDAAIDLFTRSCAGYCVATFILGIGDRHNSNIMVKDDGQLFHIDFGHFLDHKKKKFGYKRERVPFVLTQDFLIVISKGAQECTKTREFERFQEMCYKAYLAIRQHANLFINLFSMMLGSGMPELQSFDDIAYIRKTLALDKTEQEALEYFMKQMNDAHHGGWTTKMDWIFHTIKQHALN
Target sequence in this assay (Q63787 whole entry partner): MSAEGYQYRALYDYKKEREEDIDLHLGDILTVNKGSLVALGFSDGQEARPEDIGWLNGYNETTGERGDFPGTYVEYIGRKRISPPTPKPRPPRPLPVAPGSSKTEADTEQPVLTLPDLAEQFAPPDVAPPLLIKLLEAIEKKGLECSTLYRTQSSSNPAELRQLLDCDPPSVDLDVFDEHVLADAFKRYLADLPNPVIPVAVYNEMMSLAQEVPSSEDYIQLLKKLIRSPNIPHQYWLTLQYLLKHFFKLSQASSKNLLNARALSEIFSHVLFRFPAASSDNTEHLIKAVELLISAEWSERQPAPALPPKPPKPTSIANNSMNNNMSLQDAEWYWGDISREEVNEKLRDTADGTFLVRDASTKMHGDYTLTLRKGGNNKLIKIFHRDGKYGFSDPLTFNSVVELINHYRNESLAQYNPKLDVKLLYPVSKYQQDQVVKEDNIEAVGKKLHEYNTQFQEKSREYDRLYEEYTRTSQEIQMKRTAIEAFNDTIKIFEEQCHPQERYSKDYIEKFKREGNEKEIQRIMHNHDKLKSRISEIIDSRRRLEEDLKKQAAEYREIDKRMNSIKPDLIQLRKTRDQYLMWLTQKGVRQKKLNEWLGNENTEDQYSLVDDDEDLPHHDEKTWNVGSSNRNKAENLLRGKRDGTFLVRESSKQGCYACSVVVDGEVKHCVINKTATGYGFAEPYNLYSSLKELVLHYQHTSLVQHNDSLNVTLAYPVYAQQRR

[2] = Microsomal clearance assay (M); settings: intrinsic clearance in rat liver microsomes
Protocol: The experiments were performed in 96-well glass plates at 37° C. on an automated Tecan EVO platform. Test compounds at a concentration of 10 mM in pure DMSO were diluted 1:1000 in water to 10 μM. […] Reactions were initiated by the addition of 150 μL of a cofactor solution containing 2 mM NADPH.

PI 3-kinase alpha [3] = molecular target: T1, PI 3-kinase alpha; assay: Kinase Glo Luminescent Kinase Assay (Kglo), assay A; format: biochemical; settings: read-out: Assay A PI3Kα IC50
Target sequence in this assay (P42336 whole entry): as the sequence (P42336 whole entry) above

PI 3-kinase delta [4] = molecular target: T2, PI 3-kinase delta (Homo sapiens, UniProt O00329); assay: Cellular assay J1, p-Akt (S473) in Rat-1 cells, Surefire format; format: cell-based; settings: non-asterisked data: version J1 (Surefire format), Rat-1 cells; read-out: Assay J PI3Kδ IC50
Target sequence in this assay (O00329 whole entry): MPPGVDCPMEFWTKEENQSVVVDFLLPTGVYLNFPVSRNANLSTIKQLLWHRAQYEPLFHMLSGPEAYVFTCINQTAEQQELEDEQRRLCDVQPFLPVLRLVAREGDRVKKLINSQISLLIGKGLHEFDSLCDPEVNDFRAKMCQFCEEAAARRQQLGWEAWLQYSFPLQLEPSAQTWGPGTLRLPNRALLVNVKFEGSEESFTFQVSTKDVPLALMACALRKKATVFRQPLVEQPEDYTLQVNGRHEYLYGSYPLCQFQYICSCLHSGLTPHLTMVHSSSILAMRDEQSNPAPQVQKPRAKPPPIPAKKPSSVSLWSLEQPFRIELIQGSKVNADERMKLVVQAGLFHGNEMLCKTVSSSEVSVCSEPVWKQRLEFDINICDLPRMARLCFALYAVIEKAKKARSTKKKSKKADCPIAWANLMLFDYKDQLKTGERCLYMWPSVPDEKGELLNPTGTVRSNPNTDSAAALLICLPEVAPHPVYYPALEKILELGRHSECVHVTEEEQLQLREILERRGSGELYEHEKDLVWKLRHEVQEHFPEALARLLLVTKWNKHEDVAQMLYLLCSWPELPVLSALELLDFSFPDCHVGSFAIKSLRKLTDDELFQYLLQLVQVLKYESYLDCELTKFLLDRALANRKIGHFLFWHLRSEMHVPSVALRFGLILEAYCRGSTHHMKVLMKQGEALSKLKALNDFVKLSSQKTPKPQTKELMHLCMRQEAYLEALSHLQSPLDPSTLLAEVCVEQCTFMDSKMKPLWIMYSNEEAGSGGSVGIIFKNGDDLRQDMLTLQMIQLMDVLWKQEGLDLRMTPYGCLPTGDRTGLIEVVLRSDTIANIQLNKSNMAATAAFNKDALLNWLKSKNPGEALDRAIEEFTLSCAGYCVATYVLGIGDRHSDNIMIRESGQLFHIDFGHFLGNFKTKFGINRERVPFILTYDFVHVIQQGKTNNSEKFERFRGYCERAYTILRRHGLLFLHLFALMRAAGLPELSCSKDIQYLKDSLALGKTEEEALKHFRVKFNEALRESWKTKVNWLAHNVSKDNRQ
Target sequence in this assay (Q63787 whole entry partner): as the sequence (Q63787 whole entry partner) above

[5] = system: IL-8-induced neutrophil shape change in human whole blood; assay: Whole blood neutrophil shape change assay (L); format: cell-based; settings: IL-8, human whole blood, read-out: Assay L WBSC IC50
Protocol: Whole Blood Neutrophil Shape Change Assay (L)
IL-8 was made up to 2 μM stocks in 0.1% bovine serum albumin/PBS and stored at −80° C. On the day IL-8 was diluted in PBS (phosphate buffered saline) 10 minutes before use. IL-8 was used at final concentration of 2 nM and a concentration range from 0.003 to 200 nM for the donor dose response curve.
Assay fixative solution was prepared fresh each day from 10× concentrated CellFIX™ solution diluted 1:10 in sterile distilled water and then 1:4 with PBS. Assay fixative solution was kept on ice prior to use.
A 10× lysis buffer was prepared in advance by dissolving 20.75 g NH4Cl and 2.5 g KHCO3 in 250 ml sterile H2O. This 10× lysis buffer was filtered under sterile conditions and stored for up to two weeks at 4° C. On the day a 1× lysis solution was prepared with sterile distilled H2O and kept on ice prior to use.
The test compounds were prepared as 10 mM stock solutions in 100% DMSO and were stored at 4° C. Once in use for an assay 10 mM stock compounds were thawed and stored at RT protected from light. Compound dilutions were prepared fresh on the day. The first series of dilutions in 100% DMSO were done first thing in the morning. Only once blood had been collected and arrived in laboratory was the next set of dilutions into PBS carried out (1:10 PBS, 10% DMSO). This limited the exposure of diluted compound to plastic and made sure the exposure timing was consistent between assays.
Compound dilutions in 100% DMSO were prepared as described previously. Human whole blood was collected in K2 EDTA Vacutainers. Once blood was in the laboratory, compound dilutions into PBS were carried out as described previously and depicted in Table 1.
The outer wells of the deep well assay plate were filled with 1200 μl of sterile distilled H2O in an effort to limit edge effects (rows A1-H1, A1-A12, A12-H12).
An IL-8 dose response was determined for each blood donor examined, to monitor the donor response to IL-8. At this step in assay preparation for the IL-8 dose response samples 10 μl of PBS was added to designated wells. In addition the assay window without DMSO was also assessed each day. For such samples at this step in assay preparation 10 μl of PBS was added in the place of 10% DMSO.
Lids were placed on the 96 well plates and samples were incubated for 15 minutes at 37° C. in a water-bath.
Following the compound pre-incubation 10× final IL-8 was added to appropriate wells (10 μl of 20 nM working stock IL-8, final IL-8 concentration in blood=2 nM) and 10 μl of PBS was added to the un-stimulated controls. 10× final dose response range IL-8 was also added to designated wells (final concentration range on assay plate was 200 nM to 0.0005 nM, 1:5 serial dilution in PBS). The IL-8 and PBS were added to appropriate wells across all assay plates in the same sequence as the blood to compound addition. […] Samples were incubated for 5 minutes at 37° C. in a water-bath. Following the incubation sample plates were transferred to ice where 250 μl of chilled Assay Fixative Buffer was added promptly to all wells.
Samples were incubated on ice for 7 minutes (no mixing). […] Once added samples were mixed once and incubated on ice for 30 minutes to achieve uniform red blood cells lysis. After lysis, 200 μl of sample was transferred to a 96 well microplate on ice. […] Granulocytes were identified based on differential side scatter (SSC) and forward scatter (FSC) characteristics.

mTOR = mTOR (Homo sapiens, UniProt P42345); assay: Lanthascreen kinase binding assay, assay G; settings: read-out: Assay G mTOR IC50
Protocol: Lanthascreen™ Kinase Binding Assay for mTOR (G)
Binding of an inhibitor to the kinase competes for binding with the tracer, resulting in a loss of FRET.
50 nL of compound dilutions were dispensed onto white 384-well small volume polystyrene plate.

PI 3-kinase gamma [6] = molecular target: T3, PI 3-kinase gamma (Homo sapiens, UniProt P48736); assay: Cellular U937 AKT assay K1 (MSD); format: cell-based; settings: U937 cells, K1 format; read-out: Assay K1 PI3Kγ IC50
PI 3-kinase gamma [7] = molecular target: T3, PI 3-kinase gamma; assay: TR-FRET Adapta assay, assay E; format: biochemical; settings: read-out: Assay E PI3Kγ IC50
PI 3-kinase beta [8] = molecular target: T4, PI 3-kinase beta (Homo sapiens, UniProt P42338); assay: Kinase Glo Luminescent Kinase Assay (Kglo), assay B; format: biochemical; settings: read-out: Assay B PI3Kβ IC50
Target sequence in this assay (P42338 whole entry): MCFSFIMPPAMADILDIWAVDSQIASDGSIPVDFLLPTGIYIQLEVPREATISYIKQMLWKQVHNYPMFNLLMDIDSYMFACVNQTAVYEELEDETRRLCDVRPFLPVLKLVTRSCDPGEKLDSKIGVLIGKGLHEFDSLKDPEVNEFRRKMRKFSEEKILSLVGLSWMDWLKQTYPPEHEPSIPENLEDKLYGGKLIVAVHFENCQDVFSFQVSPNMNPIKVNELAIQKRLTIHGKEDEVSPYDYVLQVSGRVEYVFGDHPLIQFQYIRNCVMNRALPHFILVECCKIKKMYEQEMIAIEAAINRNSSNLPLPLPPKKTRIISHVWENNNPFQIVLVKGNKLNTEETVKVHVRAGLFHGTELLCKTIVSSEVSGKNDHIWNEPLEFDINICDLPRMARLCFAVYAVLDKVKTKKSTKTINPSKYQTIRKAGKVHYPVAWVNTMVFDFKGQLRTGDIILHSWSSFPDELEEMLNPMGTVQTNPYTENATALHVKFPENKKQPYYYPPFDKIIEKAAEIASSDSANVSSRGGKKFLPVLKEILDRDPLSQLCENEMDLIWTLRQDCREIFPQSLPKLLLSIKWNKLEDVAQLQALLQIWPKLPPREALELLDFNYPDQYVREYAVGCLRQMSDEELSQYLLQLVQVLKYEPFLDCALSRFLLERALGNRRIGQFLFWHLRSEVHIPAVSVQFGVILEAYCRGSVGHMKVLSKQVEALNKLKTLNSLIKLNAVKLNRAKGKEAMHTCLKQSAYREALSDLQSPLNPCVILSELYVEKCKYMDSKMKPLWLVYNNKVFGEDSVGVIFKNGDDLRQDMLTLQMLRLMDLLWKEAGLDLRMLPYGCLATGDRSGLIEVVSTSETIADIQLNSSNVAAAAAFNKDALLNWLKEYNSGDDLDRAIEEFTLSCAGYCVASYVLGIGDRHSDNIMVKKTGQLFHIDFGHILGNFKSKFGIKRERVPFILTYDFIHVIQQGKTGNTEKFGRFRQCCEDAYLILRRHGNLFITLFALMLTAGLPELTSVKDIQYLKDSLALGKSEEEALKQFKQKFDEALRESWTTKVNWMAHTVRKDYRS
Target sequence in this assay (P27986 461-568 partner): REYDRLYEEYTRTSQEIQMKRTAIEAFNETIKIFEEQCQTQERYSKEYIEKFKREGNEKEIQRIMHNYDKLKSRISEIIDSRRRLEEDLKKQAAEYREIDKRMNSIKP

PI 4-kinase beta = PI 4-kinase beta (Homo sapiens, UniProt Q9UBF8); assay: Kinase Glo Luminescent Kinase Assay (Kglo), assay D; format: biochemical; settings: read-out: Assay D PI4Kβ IC50
Vps34 = Vps34 (Homo sapiens, UniProt Q8NEB9); assay: Kinase Glo Luminescent Kinase Assay (Kglo), assay C; format: biochemical; settings: read-out: Assay C VPS34 IC50
PI 3-kinase delta [9] = molecular target: T2, PI 3-kinase delta; assay: TR-FRET Adapta assay, assay F; settings: read-out: Assay F PI3Kδ IC50
Target sequence in this assay (O00329 whole entry): as the sequence (O00329 whole entry) above
Target sequence in this assay (P27986 461-568 partner): as the sequence (P27986 461-568 partner) above

PI 3-kinase beta [10] = molecular target: T4, PI 3-kinase beta; assay: Cellular assay I1, p-Akt (S473) in Rat-1 cells, Surefire format; format: cell-based; settings: non-asterisked data: version I1 (Surefire format), Rat-1 cells; read-out: Assay I PI3Kβ IC50
Description: Cellular Assays for PI 3-Kinase Alpha (H1), Beta (I1) and Delta (J1): Surefire Format
AlphaScreen (Amplified Luminescent Proximity Homogeneous Assay, ALPHA, Perkin Elmer) is a non-radioactive bead-based proximity assay technology to study biomolecular interactions in a homogenous microtiter plate format. The brand name SureFire denotes AlphaScreen assays that are adapted to quantify the phosphorylation of endogenous cellular proteins in cell lysates, by using matched antibody pairs, which consist of an anti-phospho-kinase and an anti-kinase antibody. The assay allows characterization of kinase signaling in cells as well as measurement of kinase inhibitor effects.
Using Rat-1 cells stably expressing myr-HA-tagged versions of the human PI3Kdelta, PI3Kalpha, or PI3Kbeta p110 catalytic subunit isoforms, the assay was developed as a two-plate protocol in a 384-well format.
For compound testing, the cells were seeded at a density of 4000 (Rat-1_PI3Kdelta), 7500 (Rat-1_PI3Kalpha), or 6200 (Rat-1_PI3Kbeta) cells in 20 μl complete growth medium into cell culture treated 384-well plates and were grown at 37° C./5% CO2/90% humidity for 24 h. Shortly before compound transfer, the complete medium was removed, 30 μl assay buffer (DMEM high glucose, 1×MEM NEAA, 10 mM HEPES, 2 mM L-glutamine, 0.1% (w/v) BSA) was added and 10 μl of the compound predilutions were transferred to the cells.

Sequence of PI 4-kinase beta (Q9UBF8 whole entry): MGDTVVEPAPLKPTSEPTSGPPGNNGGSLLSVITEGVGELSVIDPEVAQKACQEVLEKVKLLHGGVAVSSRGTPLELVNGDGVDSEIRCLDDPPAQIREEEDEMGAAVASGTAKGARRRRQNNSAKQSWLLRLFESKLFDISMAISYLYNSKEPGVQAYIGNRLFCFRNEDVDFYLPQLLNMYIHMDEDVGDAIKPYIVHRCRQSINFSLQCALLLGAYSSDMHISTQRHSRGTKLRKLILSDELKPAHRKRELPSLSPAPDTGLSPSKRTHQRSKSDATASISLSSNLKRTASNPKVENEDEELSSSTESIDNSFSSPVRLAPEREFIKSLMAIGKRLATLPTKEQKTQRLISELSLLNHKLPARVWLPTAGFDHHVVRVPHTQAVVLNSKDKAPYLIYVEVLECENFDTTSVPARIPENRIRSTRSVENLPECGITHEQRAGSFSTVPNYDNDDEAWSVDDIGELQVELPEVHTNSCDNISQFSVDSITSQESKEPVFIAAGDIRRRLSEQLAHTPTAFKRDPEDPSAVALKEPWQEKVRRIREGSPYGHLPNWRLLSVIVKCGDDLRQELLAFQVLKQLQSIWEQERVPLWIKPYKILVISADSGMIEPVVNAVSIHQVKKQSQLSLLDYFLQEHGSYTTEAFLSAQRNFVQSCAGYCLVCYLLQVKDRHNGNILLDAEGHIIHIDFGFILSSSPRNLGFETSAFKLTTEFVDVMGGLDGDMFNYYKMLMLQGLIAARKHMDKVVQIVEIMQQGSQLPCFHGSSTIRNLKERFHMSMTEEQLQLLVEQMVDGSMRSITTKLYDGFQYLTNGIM

| SMILES | IC50 (PI 3-kinase alpha [1]) [nM] | Assay M RLM CI(int) [2] [µL/min/mg] | IC50 (PI 3-kinase alpha [3]) [nM] | IC50 (PI 3-kinase delta [4]) [nM] | IC50 ([5]; Homo sapiens, Neutrophil) [nM] | IC50 (mTOR) [nM] | IC50 (PI 3-kinase gamma [6]) [nM] | IC50 (PI 3-kinase gamma [7]) [nM] | IC50 (PI 3-kinase beta [8]) [nM] | IC50 (PI 4-kinase beta) [nM] | IC50 (Vps34) [nM] | IC50 (PI 3-kinase delta [9]) [nM] | IC50 (PI 3-kinase beta [10]) [nM] | IC50 [5] [nM] |
| --- | --- | --- | --- | --- | --- | --- | --- | --- | --- | --- | --- | --- | --- | --- |
| Cc1ccc(S(=O)(=O)NCCC(C)(C)O)cc1-c1cnc(N)c(-n2cccn2)n1 [Example 62, 3-(5-Amino-6-(1H-pyrazol-1-yl)pyrazin-2-yl)-N-(3-hydroxy-3-methylbutyl)-4-methylbenzenesulfonamide] | 1440 | 155 | 680 | 970 | 7910 | > 9100 | 110 | 56 | 1010 | 3680 | > 9100 | 210 |  |  |
| Cc1ccc(S(=O)(=O)NC2CC3(CC(O)C3)C2)cc1-c1cnc(N)c(-c2cn(C)nc2C)n1 (single isomer, unassigned) [Example 9a, (R)-3-[5-Amino-6-(1,3-dimethyl-1H-pyrazol-4-yl)-pyrazin-2-yl]-N-(6-hydroxy-spiro[3.3]hept-2-yl)-4-methyl-benzenesulfonamide or (S)-3-[5-Amino-6-(1,3-dimethyl-1H-pyrazol-4-yl)-pyrazin-2-yl]-N-(6-hydroxy-spiro[3.3]hept-2-yl)-4-methyl-benzenesulfonamide] |  | 34 |  | 3530 |  | 8100 | 40 | 15 | 540 |  | > 10000 | 200 | > 10000 | 327 |
| Cc1ccc(S(=O)(=O)NCC(C)(C)CO)cc1-c1cnc(N)c(-c2cc(C3CC3)no2)n1 [Example 99, 3-(5-Amino-6-(3-cyclopropylisoxazol-5-yl)pyrazin-2-yl)-N-(3-hydroxy-2,2-dimethylpropyl)-4-methylbenzenesulfonamide] |  | 74 | 740 |  | 3520 | 4950 | 59 | 14 | 1650 | 2700 | 2950 | 140 |  |  |

Further lines, with some results ahead:

| IC50 (PI 3-kinase alpha [1]) [nM] | Assay M RLM CI(int) [2] [µL/min/mg] | IC50 (PI 3-kinase alpha [3]) [nM] | IC50 (PI 3-kinase delta [4]) [nM] | IC50 ([5]; Homo sapiens, Neutrophil) [nM] | IC50 (mTOR) [nM] | IC50 (PI 3-kinase gamma [6]) [nM] | IC50 (PI 3-kinase gamma [7]) [nM] | IC50 (PI 3-kinase beta [8]) [nM] | IC50 (PI 4-kinase beta) [nM] | IC50 (Vps34) [nM] | IC50 (PI 3-kinase delta [9]) [nM] | SMILES | IC50 (PI 3-kinase beta [10]) [nM] | IC50 [5] [nM] |
| --- | --- | --- | --- | --- | --- | --- | --- | --- | --- | --- | --- | --- | --- | --- |
| > 10000 | 13 | 470 | 7800 | 830 | 4510 | 91 | 56 | 2480 | 7970 | 7490 | 240 | Cc1ccc(S(=O)(=O)N[C@H]2CC[C@@H](O)CC2)cc1-c1cnc(N)c(-c2cnn(C)c2)n1 [Example 75, 3-(5-Amino-6-(1-methyl-1H-pyrazol-4-yl)pyrazin-2-yl)-N-((1s,4s)-4-hydroxycyclohexyl)-4-methylbenzenesulfonamide] |  |  |
| 2970 | 44 | 330 | 3250 | 626 | 6500 | 163 | 68 | 3930 | 7850 | > 9100 | 420 | Cc1cn(-c2nc(-c3cc(S(=O)(=O)NCCC(C)(C)O)ccc3C)cnc2N)cn1 [Example 63, 3-(5-Amino-6-(4-methyl-1H-imidazol-1-yl)pyrazin-2-yl)-N-(3-hydroxy-3-methylbutyl)-4-methylbenzenesulfonamide] |  |  |
|  | 106 | 250 |  | 2880 | > 10000 | 98 | 77 | 1700 | 4550 | > 10000 | 400 | Cc1csc(-c2nc(-c3cc(S(=O)(=O)NCC(C)(C)O)ccc3C)cnc2N)n1 [Example 80, 3-(5-Amino-6-(4-methylthiazol-2-yl)pyrazin-2-yl)-N-(2-hydroxy-2-methylpropyl)-4-methylbenzenesulfonamide] |  |  |
